The results in this text go back to patent publication US20130089601A1, “METHOD FOR TREATING ATHEROSCLEROSIS” (KAOHSIUNG MEDICAL UNIVERSITY, priority 2009, published 2013).

Type in all cases: cell-based, human
One data set deals with VSMC cells. The data set can be described thus: Chemotactic migration of VSMC (Transwell). The note with it: 100 nM for 24 hours, ox-LDL 40 μg/ml. The procedure:
Chemotactic migration is another characteristic of atherosclerosis and can be used as another line of evidence of atherosclerotic change for the cultured VSMC cells. This experiment was assayed by using a microchemotactic chamber and polycarbonate filters with pores of […] in diameter (Transwell, Millipore). After incubated with microRNA-195 (Pre-miR miRNA, hsa-miR-195 (product ID PM10827), Ambion Inc.) (100 nM) or an inhibitor (100 nM) for 24 hours, the VSMC cells were trypsinized and suspended with a serum free medium. A volume (300 μl) of a 1×10^4 cell suspension was placed in the upper chamber, the medium containing ox-LDL (40 μg/ml, each) was placed in the lower and upper chamber. The cell suspension was incubated at a temperature of 37° C. under 5% CO2 in air for 24 hours. After incubation, the VSMC cells on the upper side of the filter were scraped off, and the cells that had directly migrated to the lower side of the filter were trypsinized. The cells were fixed with methanol and stained with a Giemsa solution (Merck). Quantification of chemotactic migration was performed using the hemocytometer.

For the next data set, the system named is MCP-1. In words: MCP-1 secreted from VSMC, sandwich enzyme immunoassay. How it is done:
Monocyte chemotactic protein-1 (MCP-1) is a well established atherosclerotic biomarker and it was examined to further test for the influence of microRNA-195 on the atherogenic biomarker. VSMC cells in six-well plates were grown to confluence and then cultivated in a serum-free medium for 24 hours before the experiment. After transfection of microRNA-195 for 24 hours, the cells were further incubated with ox-LDL and simvastatin for another 24 hours. The supernatants of the conditioned medium were collected and frozen at −70° C. The culture supernatants were analyzed to determine the MCP-1 using Sandwich Enzyme Immunoassay kits (BD Biosciences) according to the manufacturer protocol.

The subject of data set [1] is THP-1 cells adherent to HUVEC. The data set can be described thus: In vitro adhesion assay of THP-1 cells to HUVEC co-cultured with transfected HASMCs. The note with it: in the presence of ox-LDL, vs NC-miR. From the text:
MicroRNA-195 mimic, microRNA-195 inhibitor and negative control microRNA (NC-miR) were purchased from Ambion Inc. (TX, USA) with the sequences information shown as microRNA-195 mimic, 5′-[…]-3′ (SEQ ID NO: 5); microRNA-195 inhibitor, 5′-[…]-3′ (SEQ ID NO: 6); negative control sequence, 5′-AGUACUGCUUACGAUACGG-3′ (SEQ ID NO: 7). MicroRNA -195 inhibitor was used to specifically bind to and inhibit endogenous microRNA-195. The NC-miR is a random sequence pre-miR molecule that has been extensively tested in human cell lines and tissues and validated to produce no identifiable effects on known miRNA function. […]
At first, human aorta smooth muscle cells (HASMCs) were seeded on the inner side of Millicell® with the PET membrane (Millipore, Hanging 24-well cell culture inserts) at a density of 3×10^5 cells/cm^2 and transfected with microRNA-195 mimic mimic by using lipofectamine2000 for 24 hours. […] Then 4 ml of new culture medium was put in each dish and they were incubated overnight at 37° C. in 5% CO2 and 95% air humidified atmosphere to get ready for use in adhesion experiments of THP-1 cells.
To visualize the THP-1 cells adherent to the HUVEC-HASMC co-culture, the THP-1 cells were labeled with a fluorescent dye, calcein-AM. Fluorescence-labeled cells were resuspended in 4 ml of IMDM containing 10% FCS and prepared for use in adhesion experiments. […]

For another data set, the system named is VCAM-1. In words: Real-time qPCR of VCAM-1 mRNA in HUVECs co-cultured with transfected HASMCs. Particulars: co-cultured with microRNA-195-transfected HASMCs. The procedure:
(§1) HASMCs were transfected with negative control microRNA or microRNA-195 with or without the presence of oxLDL. MicroRNA-195-transfected HASMCs were co-cultured with HUVEC. Real-time qPCR analysis of mRNA levels for genes surrogating endothelial functions as well as atherosclerosis, such as vascular cell adhesion molecule-1 (VCAM-1), […] (TNF-a) and interleukin-6 (IL-6), and vasodilation gene, endothelial nitric oxide synthase (eNOS), were determined in HUVECs.

A further data set relates to TNF-a. The data set can be described thus: Real-time qPCR of TNF-a mRNA in HUVECs co-cultured with transfected HASMCs. Particulars: co-cultured with microRNA-195-transfected HASMCs. How it is done: as §1
For orientation: In qPCR the cycle at which signal appears reflects the starting amount.

The next data set relates to IL-6. The data set can be described thus: Real-time qPCR of IL-6 mRNA in HUVECs co-cultured with transfected HASMCs. The note with it: co-cultured with microRNA-195-transfected HASMCs. How it is done: as §1

As to “microRNA-195: Pre-miR miRNA, hsa-miR-195 (product ID PM10827), Ambion Inc., which mimics precursor for mature human miR-195; mimic 5′-UAGCAGCACAGAAAUAUUGGC-3′ (SEQ ID NO: 5) (chemistry not given here)”, in the data set on VSMC cells, the “chemotactic migration, percentage of migrated cells compared to control medium cells” value was found to be 137.6%. In addition, the “effect on reducing the atherogenic biomarker (MCP-1) compared with simvastatin” value in the data set with MCP-1 (ox-LDL stimulation) is recorded as “stronger effect”. Besides, in the data set with MCP-1 (transfection 24 hours then ox-LDL 24 hours, culture supernatant), the MCP-1 levels result is “significantly decrease”. Besides, the “THP-1 cells adhering to HUVEC” value in data set [1] is on record as “fewer”. Also, the “VCAM-1 mRNA level in HUVECs” value in the data set with VCAM-1 is listed as “suppresses”. In addition, the “TNF-a mRNA level in HUVECs” value in the data set on TNF-a is “suppresses”. In the data set on IL-6, the “IL-6 mRNA level in HUVECs” value is “suppresses”.
